Blank lines part the entries; values can stand above or below the molecule they belong to.
Columns and labels:
human CaSR = target: T1, human CaSR (Homo sapiens, UniProt P41180); assay: Intracellular Ca2+ (fura-2, F/F0) in HEK293 cells stably expressing human CaSR; format: cell-based; conditions: HEK-CaSR; for CaSR activation (Ca2+i increase) by agonist: 300 nM poly-L-arginine, 1 mM spermine, 10 μg/ml ECP, no response in HEK-0
T1 construct: expressed in transfected cells; control HEK-0 with empty vector
T1 sequence (P41180 20-1078): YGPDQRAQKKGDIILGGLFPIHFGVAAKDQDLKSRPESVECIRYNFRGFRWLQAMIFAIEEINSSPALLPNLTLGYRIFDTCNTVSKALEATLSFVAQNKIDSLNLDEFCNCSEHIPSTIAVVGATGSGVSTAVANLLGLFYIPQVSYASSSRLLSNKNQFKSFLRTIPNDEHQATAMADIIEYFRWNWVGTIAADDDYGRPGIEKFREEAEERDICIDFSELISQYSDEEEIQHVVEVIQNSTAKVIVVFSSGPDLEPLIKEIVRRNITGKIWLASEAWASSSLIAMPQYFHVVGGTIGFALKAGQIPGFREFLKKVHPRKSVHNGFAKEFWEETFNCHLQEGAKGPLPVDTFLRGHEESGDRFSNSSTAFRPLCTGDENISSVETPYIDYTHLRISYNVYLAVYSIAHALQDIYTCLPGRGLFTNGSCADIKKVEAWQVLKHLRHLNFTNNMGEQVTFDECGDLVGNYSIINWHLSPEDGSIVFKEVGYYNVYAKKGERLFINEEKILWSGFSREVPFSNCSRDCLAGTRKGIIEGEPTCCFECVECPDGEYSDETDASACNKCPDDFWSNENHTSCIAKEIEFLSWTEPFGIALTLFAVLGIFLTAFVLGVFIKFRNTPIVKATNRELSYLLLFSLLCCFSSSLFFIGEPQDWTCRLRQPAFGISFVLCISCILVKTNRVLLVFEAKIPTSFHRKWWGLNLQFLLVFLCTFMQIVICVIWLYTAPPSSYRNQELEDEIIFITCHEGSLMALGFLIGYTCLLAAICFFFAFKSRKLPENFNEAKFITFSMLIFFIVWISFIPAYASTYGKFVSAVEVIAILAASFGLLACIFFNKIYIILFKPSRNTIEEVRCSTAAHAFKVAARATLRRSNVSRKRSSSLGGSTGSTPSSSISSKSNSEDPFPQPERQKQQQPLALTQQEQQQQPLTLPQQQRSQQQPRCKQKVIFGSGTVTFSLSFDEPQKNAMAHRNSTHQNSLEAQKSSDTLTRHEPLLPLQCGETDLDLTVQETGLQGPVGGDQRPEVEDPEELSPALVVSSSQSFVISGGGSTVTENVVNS
Protocol: The structurally unrelated calcilytic NPS2143 also prevents spermine-induced CaSR activation (D). […] Note that ECP serum concentrations in asthmatic subjects are believed to be 30 μg/ml. n=121-487 cells, 3-9 experiments. Data are mean±SEM. Where differences are significant, they are shown above the bars. FIG. 6. Ca^2+o activates the CaSR, an effect which can be prevented by the calcilytic NPS89636. HEK293 cells stably expressing the human CaSR (HEK-CaSR) or transfected with empty vector (HEK-0) were loaded with 4 μM fura-2 AM and exposed to 5 mM Ca^2+o in the absence or presence of the calcilytic, NPS89636 (100 nM). Data are from >3 experiments and 121-386 cells. Significant differences are shown above the bars. […] The ability of a structurally unrelated calcilytic, NPS2143 (1-10 μM), was also tested on spermine-induced Ca^2+i mobilisation in HEK-CaSR. Ca^2+i release was measured as peak/baseline fluorescence (F/F0). Note that ECP serum concentrations in asthmatic subjects increase with disease severity and are believed to reach 30 μg/ml.

CaSR in human ASM cells = target: T2, CaSR in human ASM cells (Homo sapiens, UniProt P41180); assay: Intracellular Ca2+ signalling (Fura-2) in primary human airway smooth muscle cells; format: cell-based; conditions: spermine 0.1-3 mM; ECPs 1-10 micrograms/ml
T2 construct: endogenous in cells; host or cells: primary human airway smooth muscle cells explanted from bronchial biopsies
T2 sequence (P41180 20-1078): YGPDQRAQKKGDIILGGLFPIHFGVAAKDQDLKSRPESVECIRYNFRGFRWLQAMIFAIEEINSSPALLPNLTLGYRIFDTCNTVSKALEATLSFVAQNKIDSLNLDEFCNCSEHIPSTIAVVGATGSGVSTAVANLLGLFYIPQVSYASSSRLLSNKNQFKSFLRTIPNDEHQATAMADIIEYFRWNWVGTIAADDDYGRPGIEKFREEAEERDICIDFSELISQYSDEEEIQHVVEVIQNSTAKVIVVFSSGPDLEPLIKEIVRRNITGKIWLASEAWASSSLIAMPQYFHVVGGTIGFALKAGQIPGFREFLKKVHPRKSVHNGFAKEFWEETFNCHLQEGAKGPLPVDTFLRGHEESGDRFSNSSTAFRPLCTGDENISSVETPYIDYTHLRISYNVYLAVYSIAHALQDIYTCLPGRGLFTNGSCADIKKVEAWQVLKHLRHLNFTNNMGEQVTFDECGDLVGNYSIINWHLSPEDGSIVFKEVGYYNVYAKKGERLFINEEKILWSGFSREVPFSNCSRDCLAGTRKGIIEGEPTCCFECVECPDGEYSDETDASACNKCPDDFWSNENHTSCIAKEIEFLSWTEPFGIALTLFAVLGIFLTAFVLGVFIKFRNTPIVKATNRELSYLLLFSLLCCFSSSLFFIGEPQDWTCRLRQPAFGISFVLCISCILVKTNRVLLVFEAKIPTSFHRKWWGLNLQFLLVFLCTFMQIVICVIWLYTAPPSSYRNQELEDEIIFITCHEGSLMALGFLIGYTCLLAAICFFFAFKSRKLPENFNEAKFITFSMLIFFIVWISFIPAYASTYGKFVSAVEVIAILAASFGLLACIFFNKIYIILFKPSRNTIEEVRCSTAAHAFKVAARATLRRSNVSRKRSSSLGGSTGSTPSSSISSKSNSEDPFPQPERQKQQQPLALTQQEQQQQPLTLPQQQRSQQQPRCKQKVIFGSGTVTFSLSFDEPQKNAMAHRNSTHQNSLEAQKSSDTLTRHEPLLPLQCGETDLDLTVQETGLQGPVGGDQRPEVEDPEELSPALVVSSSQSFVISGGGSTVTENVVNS
Protocol: Human ASM cells, loaded with Fura-2 AM, show elevation of [Ca^2+]i (F/F0) when exposed to increased [Ca^2+]o (A, n=7) or spermine (B, n=35; mean±SEM). […] In the presence of 5 mM [Ca^2+]o (saturating for CaSR, see A), the response to ECP, but not to BK, is ablated, consistent with CaSR activation by ECP. D), transfection of a “dominant negative” CaSR (CaSR DN) prevents spermine-dependent increase in [Ca^2+]i in human ASM cells, an effect which cannot be seen in MOCK-transfected cells.
Effects of Polycations in Human ASM Cells In Vitro
Once primary human airway smooth muscle cells cell cultures were established at 80-90% confluence using the protocol described above, the endogenous CaSR was activated by exposing these cells to pathophysiologically relevant concentrations of ECPs (1-10 micrograms/ml), spermine (0.1-3 mM) and Ca^2+o (1-5 mM) to determine the effects on intracellular Ca^2+i signalling (using the Ca^2+-sensitive fluorescent dye, Fura-2).

[1] = system: mouse intralobular bronchi; conditions: 300 μM spermine, 15 min pre-treatment
Protocol: A. Intralobular bronchi were dissected from wild type C57/Bl6 mice (3-4 month of age), mounted upon a wire myograph and bubbled with 95% O2/5% CO2 in the presence of an extracellular solution containing 1 mM Ca^2+o. […] Data are mean±SEM, n=3. B. Intralobular bronchi were dissected from wild type (sm22α-Cre^−/−/floxed-CaSR^+/+) and CaSR knockout (sm22α-Cre^+/+/floxed-CaSR^+/+) mice and were then mounted on a wire myograph, as described in (A). […] Percentage of contraction (upwards deflection from zero of the relaxation curve) or relaxation (downwards deflection from zero of the relaxation curve) were calculated from the tension data. Data are mean±SEM, n=3 per genotype. […] Second/third order intralobular bronchi were dissected from the lung left lobes of WT or KO mice, mounted in small vessel myograph using stainless steel wires (d=40 micrometers) and maintained in a Krebs solution bubbled with 95% O2/5% CO2. Bronchi were left to settle at 37° C. for 30 min, then they were gradually stretched to reach 2 mN of passive tension. After 30 min equilibration time, reactivity of the bronchi was tested by addition of 40 mM KCl to the bath. […] Data are shown as mean±SEM percentage of contraction normalized to the maximal contraction in control. […] Bronchi were left to settle at 37° C. for 30 min, then they were gradually stretched to reach 2 mN of passive tension. […]

[2] = system: mouse intralobular bronchi; conditions: spermine 10 μM-3 mM cumulative, ACh-precontracted to ~50% tone
Protocol: A. Intralobular bronchi were dissected from wild type C57/Bl6 mice (3-4 month of age), mounted upon a wire myograph and bubbled with 95% O2/5% CO2 in the presence of an extracellular solution containing 1 mM Ca^2+o. […] Data are mean±SEM, n=3. B. Intralobular bronchi were dissected from wild type (sm22α-Cre^−/−/floxed-CaSR^+/+) and CaSR knockout (sm22α-Cre^+/+/floxed-CaSR^+/+) mice and were then mounted on a wire myograph, as described in (A). […] Percentage of contraction (upwards deflection from zero of the relaxation curve) or relaxation (downwards deflection from zero of the relaxation curve) were calculated from the tension data. Data are mean±SEM, n=3 per genotype. […] Second/third order intralobular bronchi were dissected from the lung left lobe of WT or CaSR KO mice, mounted in small vessel myograph using stainless steel wires (d=40 micrometers) in a Krebs' solution bubbled with 95% O2/5% CO2. Bronchi were left to settle at 37° C. for 30 min, then gradually stretched to reach 2 mN of passive tension. After 30 min of equilibration time, the reactivity of the bronchi was tested by addition of 40 mM KCl to the bath. […] Data are shown as mean±SEM percentage change from baseline, where upwards deflection from zero represents contraction, whilst downwards deflection from zero of the relaxation curve represents relaxation. […] WT: n=6; KO: n=7. *p<0.05; **p<0.01.

BalbC mice = assay: Polycation-induced bronchial hyper-reactivity (Penh, plethysmography) in methacholine-challenged conscious mice; format: in vivo, mouse; conditions: nebulised poly-L-arginine 3 μM, 1 hour; conscious BalbC mice
Protocol: FIG. 5. […] prevent polycation-evoked BHR in methacholine-challenged mice. […] After the treatment, animals were placed in plethysmography chambers (Buxco, USA), allowed to settle for 10 minutes, and then they were challenged with methacholine (MCh, 0.1-10 mg/ml). Responses to methacholine obtained from the animals that have not received any treatments are shown in black symbols. From our previous estimates, 1-5% of the nebulised drug reaches the lung epithelium. […] FIG. 12. […] Male BalbC mice ( 25 g) were purchased from Harlan 1 week before the experimental protocols were performed. […] On the day of the experiment, the body weight of each mouse was recorded and mice were allowed to acclimatise to the chamber for at least 10 min before recordings were made. Then, respiratory activity was recorded for 5 min, to establish baseline value for Penh. […] Data were recorded for 3 minutes after each aerosol administration. The Penh values at each MCh concentration were averaged and expressed as a proportion of baseline Penh (Penh before treatment). […] The Penh values at each MCh concentration were averaged and expressed as a proportion of that day's baseline Penh (Penh after treatment). […] Effect of Polycations and of the Calcilytic NPS89636 on Bronchial Hyper-Reactivity in Unrestrained, Conscious Mice In Vivo Baseline airway hyper-responsiveness was measured by plethysmography. […]

- Effect of calcilytic on spermine-induced CaSR activation (Ca2+i mobilisation) (human CaSR; 1-10 μM calcilytic): prevented CaSR activation by spermine
Molecule: CC(C)(Cc1ccc2ccccc2c1)NC[C@@H](O)COc1cccc(Cl)c1C#N.Cl [NPS2143, reference compound]

- CaSR activation (Ca2+i increase) by agonist (human CaSR): responds
- Increase in Ca2+i evoked by agonist in human ASM cells (CaSR in human ASM cells): evoke increases in Ca^2+i
Molecule: NCCCNCCCCNCCCN [spermine]
- Effect on ACh-induced contraction, CaSR KO bronchi ([1]; CaSR knock-out mice): not seen
- Effect on ACh-induced contraction, WT bronchi ([1]; wild-type mice): increases the response to acetylcholine-mediated contraction
- Direct bronchoconstriction, CaSR KO bronchi ([2]; knock-out mice): not in the intralobular bronchi of knock-out mice
- Direct bronchoconstriction, WT bronchi ([2]; wild-type mice): directly evokes bronchoconstriction

Molecule: poly-L-arginine [reference compound]
- CaSR activation (Ca2+i increase) by agonist (human CaSR): responds
- Effect on response to methacholine (Penh) (BalbC mice): significantly enhanced

- CaSR activation (Ca2+i increase) by agonist (human CaSR): agonists at the CaSR
- Increase in Ca2+i evoked by agonist in human ASM cells (CaSR in human ASM cells): evoke increases in Ca^2+i
B1: ECPs: eosinophil cationic protein, novel agonist at the human CaSR (protein, UniProt P12724 28-160, looked up)
Eosinophil cationic protein: RPPQFTRAQWFAIQHISLNPPRCTIAMRAINNYRWRCKNQNTFLRTTFANVVNVCGNQSIRCPHNRTLNNCHRSRFRVPLLHCDLINPGAQNISNCTYADRPGRRFYVVACDNRDPRDSPRYPVVPVHLDTTI

Reference: patent US9861606B2, “Therapeutic for treating inflammatory lung disorders” (University College Cardiff Consultants Limited, priority 2012, dated 2018)
